In patent US20170333391A1, “METHOD FOR DELAYING THE ONSET OF PULMONARY FIBROSIS OR TREATING PULMONARY FIBROSIS” (EVERFRONT BIOTECH INC., priority 2016, published 2017):

Experiments:
[1] = test system: C57B/L6 mice injected with Bleomycin sulfate (inducer of pulmonary fibrosis); test: Lung tissue slice observation (H&E stain) in Bleomycin sulfate mice; assay type: in vivo; details: compared to oil group
Protocol: 24 C57B/L6 mice (age: four weeks) were separated into four groups (6 mice in each group). Each group was respectively treated under the following conditions to conduct follow-up experiments: • (1) Control group (mice without pulmonary fibrosis; i.e., normal mice): 50 μl of PBS was administrated to each mouse by intratracheal injection, and then the mice were fed for 30 days; • (2) Oil group: 0.6 U/50 μl of Bleomycin sulfate (dissolved in PBS) was administrated to each mouse by intratracheal injection, and then 100 μl of olive oil was orally administrated to each mouse every day for 30 days; • (3) Low-dose group: 0.6 U/50 μl of Bleomycin sulfate (dissolved in PBS) was administrated to each mouse by intratracheal injection, and then compound (1) (10 mg/kg-body weight, prepared with olive oil to provide a final volume of 100 μl) was orally administrated to each mouse every day for 30 days; and • (4) High-dose group: 0.6 U/50 μl of Bleomycin sulfate (dissolved in PBS) was administrated to each mouse by intratracheal injection, and then compound (1) (50 mg/kg-body weight, prepared with olive oil to provide a final volume of 100 μl) was orally administrated to each mouse every day for 30 days.
After completing the measurement of the pulmonary function in Example 6, the mice were sacrificed. Pulmonary tissue samples were taken from the mice, and separated into two groups (each group comprised samples from the control group, oil group, low-dose group and high-dose group). One of the two groups was preserved at −20° C. for the follow-up experiment, and the other group was analyzed by hematoxylin-sosin stain (H&E stain).

TGF-β protein = TGF-β protein expression in TGF-β1-induced NHLF, western blotting (Example 4); assay type: cell-based, human; details: uninduced control = 1, TGF-β1-only group A = 1.75
Protocol: Normal Human lung fibroblasts (NHLF) were seeded into 6 cm culture dishes at a density of 2×10^5 cells/dish, comprising a control group and five experimental groups (6 dishes in total). The cells were cultured until the next day, and then the mediums were removed. Each group was respectively treated under the following conditions to conduct follow-up experiments: • (1) Control group: cells were cultured in a FGM-2 medium containing 1% serum for 36 hours; • (2) Group A: cells were cultured in a FGM-2 medium containing 1% serum and TGF-β1 (5 ng/ml) for 36 hours; • (3) Group B: cells were firstly cultured in a FGM-2 medium containing 1% serum and TGF-β1 (5 ng/ml) for 12 hours, and then compound (1) was added into the medium to provide a final concentration of 15 μg/ml; thereafter, the cells were cultured for another 24 hours; • (4) Group C: cells were firstly cultured in a FGM-2 medium containing 1% serum and TGF-β1 (5 ng/ml) for 12 hours, and then compound (1) was added into the medium to provide a final concentration of 30 μg/ml; thereafter, the cells were cultured for another 24 hours; • (5) Group D: cells were firstly cultured in a FGM-2 medium containing 1% serum and TGF-β1 (5 ng/ml) for 12 hours, and then compound (2) was added into the medium to provide a final concentration of 100 μg/ml; thereafter, the cells were cultured for another 24 hours; and • (6) Group E: cells were firstly cultured in a FGM-2 medium containing 1% serum and TGF-β1 (5 ng/ml) for 12 hours, and then compound (2) was added into the medium to provide a final concentration of 200 μg/ml; thereafter, the cells were cultured for another 24 hours.
Thereafter, the proteins in the cells of each group were extracted, and the expressions of BMP-7 protein, TGF-β protein and p-smad2/3 protein in the NHLF cells of each group were measured with western blotting. The results of the control group served as the basis for calculating the relative expression levels of the other groups.

α-SMA = α-SMA mRNA expression in NHLF, Q-PCR (3-2); assay type: cell-based, human; details: 24 hours
Protocol: Normal Human lung fibroblasts (NHLF) were seeded into 6-well plate at a density of 10^5 cells/well, comprising a control group and five experimental groups (6 wells in total). The cells were cultured until the next day, and then the mediums were removed. Each group was respectively treated under the following conditions to conduct follow-up experiments: • (1) Control group: cells were cultured in a FGM-2 medium containing 1% serum for 24 hours; • (2) Group α: cells were cultured in a FGM-2 medium containing 1% serum and compound (1) (5 μg/ml) for 24 hours; • (3) Group β: cells were cultured in a FGM-2 medium containing 1% serum and compound (1) (10 μg/ml) for 24 hours; • (4) Group γ: cells were cultured in a F-12K medium containing 1% serum and H2O2 (0.1 mM) for 24 hours; • (5) Group δ: cells were cultured in a F-12K medium containing 1% serum, H2O2 (0.1 mM) and compound (1) (5 μg/ml) for 24 hours; and • (6) Group ε: cells were cultured in a F-12K medium containing 1% serum, H2O2 (0.1 mM) and compound (1) (10 μg/ml) for 24 hours.
Thereafter, the total RNA of cells taken from each group were extracted, and then reverse transcription was conducted on the total RNA by using a QuantiTect Reverse Transcription Kit to obtain cDNA therefrom. A Q-PCR was then conducted on the cDNA to analyze the mRNA expression levels of genes such as α-SMA and TGF-β, wherein GAPDH gene served as an internal control. The results of the control group served as the basis for calculating the relative expression levels of the other groups.

[2] = High-dose group, compound (1) 50 mg/kg orally daily 30 days
[3] = Low-dose group, compound (1) 10 mg/kg orally daily 30 days

CCCC=C1OC(=O)c2ccccc21 [compound (1)]
alveolar wall tissue thickness (H&E stain) [1, 2]: significantly thinner
level of abnormal infiltration of pulmonary cells (H&E stain) [1, 2]: significantly less
alveolar wall tissue thickness (H&E stain) [1, 3]: significantly thinner
level of abnormal infiltration of pulmonary cells (H&E stain) [1, 3]: significantly less
Relative expression level (fold) TGF-β protein (TGF-β protein; Group B: TGF-β1 5 ng/ml 12 h, then compound (1) 15 μg/ml 24 h): 1.27 fold
Relative expression level (fold) TGF-β protein (TGF-β protein; Group C: TGF-β1 5 ng/ml 12 h, then compound (1) 30 μg/ml 24 h): 1.34 fold
Relative expression level (fold) α-SMA (α-SMA; Group α: mRNA, FGM-2 medium 1% serum + compound (1) 5 μg/ml, control group = 1): 0.46 fold
Relative expression level (fold) α-SMA (α-SMA; Group β: mRNA, FGM-2 medium 1% serum + compound (1) 10 μg/ml, control group = 1): 0.64 fold
Relative expression level (fold) α-SMA (α-SMA; Group δ: mRNA, F-12K medium 1% serum + H2O2 0.1 mM + compound (1) 5 μg/ml, control group = 1, H2O2-only group γ = 0.92): 0.56 fold
Relative expression level (fold) α-SMA (α-SMA; Group ε: mRNA, F-12K medium 1% serum + H2O2 0.1 mM + compound (1) 10 μg/ml, control group = 1, H2O2-only group γ = 0.92): 0.37 fold
